Experimental data as given in publication PMC9138090, “Study on the Neuroprotective, Radical-Scavenging and MAO-B Inhibiting Properties of New Benzimidazole Arylhydrazones as Potential Multi-Target Drugs for the Treatment of Parkinson’s Disease” (Antioxidants, 2022).

Test system: rat brain synaptosomes
Assay: 6-OHDA-induced neurotoxicity, GSH level
Format: cell-based
Details: 10 µM pretreatment, 6-OHDA 150 mmol/L 1 h
Procedure: Synaptosomes were prepared from brains of adult male Wistar rats. The brains were homogenized in 10 volume of cold buffer 1, containing 5 mM HEPES and 0.32 M sucrose (pH = 7.4). The brain homogenate was centrifuged twice at 1000× g for 5 min at 4 °C. The supernatant was collected and centrifuged 3 times at 10,000× g for 20 min at 4 °C. The pellet was re-suspended in ice-cold buffer 1. The synaptosomes were isolated by using Percoll reagent to prepare the gradient. Synaptosomes were re-suspended and incubated in buffer 2, containing 290 mM NaCl, 0.95 mM MgCl2 × 6H2O, 10 mM KCl, 2.4 mM CaCl2 × H2O, 2.1 mM NaH2PO4, 44 mM HEPES, and 13 mM D-glucose. Incubations were performed in a 5% CO2 + 95% O2 atmosphere. The content of synaptosomal protein was determined according to the method of Lowry et al. using bovine serum albumin as a standard.
The metabolism and oxidation of dopamine cause reactive oxygen radicals and reactive quinones to be produced, which could lead to neurotoxicity and neurodegeneration. The synaptosomes were incubated with the compounds (10 µM) for 30 min and then 6-hydroxydopamnine (150 mmol/L) was used to induce neurotoxicity. […] After 1 h, they were centrifuged on a microcentrifuge for 1 min at 15,000 rpm. The precipitates were gently mixed with buffer B and glucose and centrifuged for a second time at 15,000 rpm for 1 min. After the second wash, buffer B and glucose were added to the precipitates.
In the presented experiments, an in vitro assessment of the possible antioxidant and neuroprotective effects of the newly synthetized compounds was performed in a model of 6-OHDA induced toxicity in rat brain synaptosomes. 6-OHDA is a neurotoxicant that structurally resembles dopamine and can be used in different in vivo and in vitro models for neurotoxicity. This model resembles the histological, biochemical, and physiological characteristics of neurodegenerative diseases such as Parkinson’s and Alzheimer’s disease. […] However, their uptake into brain synaptosomes is similar among primates and rodents and they are suitable in vitro models for PD. The main mechanism of 6-OHDA toxicity includes induction of oxidative stress. It undergoes auto-oxidation or metabolic degradation to p-quinone and produces hydrogen peroxide, superoxide, and hydroxyl radicals. The process causes lipid peroxidation, protein oxidation, and DNA oxidation and finally results in oxidative stress and mitochondrial dysfunction. Rat brain synaptosomes were pretreated with compounds 3e, 3h, 3i, 3m, melatonin, and rasagiline (10 μM); after that, the samples were subjected to 6-OHDA (150 mmol/L, 1 h). The protective effects were evaluated by measurement of synaptosomal viability (MTT-test) and GSH levels (Figure 3).

Compound: O=C(CCn1c(=S)n(CCC(=O)NN=Cc2cccc(O)c2O)c2ccccc21)NN=Cc1cccc(O)c1O [3h, 3,3′-(2-Thioxo-1H-benzo[d]imidazole-1,3(2H)-diyl)bis(N′-(2,3-dihydroxybenzylidene)propanehydrazide)]
- restoration of GSH level vs. 6-OHDA treatment: 62%
